Reference: the supplement of paper PMC13380429

What was measured:
HepG2 [1] = assay: cell viability relative to DMSO; higher = less toxic; conditions: 72 h
U2OS [2] = assay: as above; conditions: 72 h
Caco-2 [3] = assay: as above; conditions: 72 h
Calu-3 [4] = assay: as above; conditions: 72 h
Vero E6 [5] = assay: as above; conditions: 72 h
HepG2 [6] = assay: relative viability EC50 (midpoint between 100% and the lowest measured viability); higher = less toxic; conditions: 72 h
U2OS [7] = assay: as above; conditions: 72 h
Caco-2 [8] = assay: as above; conditions: 72 h
Calu-3 [9] = assay: as above; conditions: 72 h
HepG2 [10] = assay: drug sensitivity score (DSS) for viability; higher = more toxic; extreme values may be limits of the assay; conditions: 72 h
U2OS [11] = assay: as above; conditions: 72 h
Caco-2 [12] = assay: as above; conditions: 72 h
Calu-3 [13] = assay: as above; conditions: 72 h
Vero E6 [14] = assay: as above; conditions: 72 h
[15] = test system: A549-ACE2 infected with SARS-CoV-2; assay: morphology score (similarity to uninfected cells); higher = more like uninfected cells; conditions: 24 h
[16] = test system: A549-ACE2 infected with SARS-CoV-2; assay: SARS-CoV-2 infection rate relative to DMSO; higher = more infection; conditions: 24 h
A549-ACE2 [17] = assay: phospholipidosis EC50; higher = less potent phospholipidosis inducer
[18] = test system: A549-ACE2 infected with SARS-CoV-2; assay: cell count relative to DMSO; higher = less toxic; conditions: 24 h
A549-ACE2 [19] = assay: drug-induced phospholipidosis relative to tamoxifen; higher = more phospholipidosis
Vero E6 [20] = assay: relative viability EC50 (midpoint between 100% and the lowest measured viability); higher = less toxic; conditions: 72 h

Cc1[nH]c(/C=C2\C(=O)Nc3ccc(S(=O)(=O)Cc4c(Cl)cccc4Cl)cc32)c(C)c1C(=O)N1CCC[C@@H]1CN1CCCC1
Conditions	SARS-CoV-2 infection rate [%]	cell count [%]	cell viability [%]	morphology score	phospholipidosis EC50 [µM]
A549-ACE2 [17], 24 h	–	–	–	–	3.45
A549-ACE2 [17], 48 h	–	–	–	–	3.61
A549-ACE2 [17], 72 h	–	–	–	–	3.54
Caco-2 [3], 1 nM	–	–	90.9	–	–
Caco-2 [3], 10 nM	–	–	99.2	–	–
Caco-2 [3], 100 nM	–	–	104	–	–
Caco-2 [3], 1000 nM	–	–	103	–	–
Caco-2 [3], 10000 nM	–	–	3.7	–	–
Calu-3 [4], 1 nM	–	–	100	–	–
Calu-3 [4], 10 nM	–	–	98.2	–	–
Calu-3 [4], 100 nM	–	–	109	–	–
Calu-3 [4], 1000 nM	–	–	100	–	–
Calu-3 [4], 10000 nM	–	–	4.3	–	–
HepG2 [1], 1 nM	–	–	102	–	–
HepG2 [1], 10 nM	–	–	96.9	–	–
HepG2 [1], 100 nM	–	–	102	–	–
HepG2 [1], 1000 nM	–	–	104	–	–
HepG2 [1], 10000 nM	–	–	3.3	–	–
U2OS [2], 1 nM	–	–	97.2	–	–
U2OS [2], 10 nM	–	–	100	–	–
U2OS [2], 100 nM	–	–	95.7	–	–
U2OS [2], 1000 nM	–	–	103	–	–
U2OS [2], 10000 nM	–	–	0.9	–	–
Vero E6 [5], 1 nM	–	–	99.9	–	–
Vero E6 [5], 10 nM	–	–	97.5	–	–
Vero E6 [5], 100 nM	–	–	101	–	–
Vero E6 [5], 1000 nM	–	–	91.1	–	–
Vero E6 [5], 10000 nM	–	–	57	–	–
[15], 0.1 µM	–	–	–	-0.01	–
[15], 0.3 µM	–	–	–	0.51	–
[15], 1 µM	–	–	–	0.6	–
[15], 3 µM	–	–	–	0.73	–
[16], 0.1 µM	109	–	–	–	–
[16], 0.3 µM	83	–	–	–	–
[16], 1 µM	74	–	–	–	–
[16], 3 µM	26	–	–	–	–
[18], 0.1 µM	–	98	–	–	–
[18], 0.3 µM	–	109	–	–	–
[18], 1 µM	–	108	–	–	–
[18], 3 µM	–	115	–	–	–

Conditions	drug sensitivity score	relative viability EC50 [µM]
Caco-2 [8]	–	3.36
Caco-2 [12]	5.1	–
Calu-3 [9]	–	3.17
Calu-3 [13]	5.4	–
HepG2 [6]	–	3.39
HepG2 [10]	5.1	–
U2OS [7]	–	3.35
U2OS [11]	5.3	–
Vero E6 [14]	3.6	–

drug-induced phospholipidosis [%], A549-ACE2 [19]
Conditions	0.3 µM	0.833333 µM	3.33333 µM	6.66667 µM	10 µM
24 h	20.1	33	77.3	173	149
48 h	14.3	18.9	53.1	177	149
72 h	13.7	15.6	43.6	149	64.6

COc1ccc2cc(-c3nc(-c4ccc([S+](C)[O-])cc4)[nH]c3-c3ccncc3)ccc2c1 (stereo not given) [tie2-kinase-inhibitor]
Conditions	SARS-CoV-2 infection rate [%]	cell count [%]	cell viability [%]	morphology score	phospholipidosis EC50 [µM]
A549-ACE2 [17], 24 h	–	–	–	–	7.52
A549-ACE2 [17], 48 h	–	–	–	–	6.68
Caco-2 [3], 1 nM	–	–	104	–	–
Caco-2 [3], 10 nM	–	–	102	–	–
Caco-2 [3], 100 nM	–	–	108	–	–
Caco-2 [3], 1000 nM	–	–	89.6	–	–
Caco-2 [3], 10000 nM	–	–	97.4	–	–
Calu-3 [4], 1 nM	–	–	104	–	–
Calu-3 [4], 10 nM	–	–	103	–	–
Calu-3 [4], 100 nM	–	–	101	–	–
Calu-3 [4], 1000 nM	–	–	98.1	–	–
Calu-3 [4], 10000 nM	–	–	56.7	–	–
HepG2 [1], 1 nM	–	–	109	–	–
HepG2 [1], 10 nM	–	–	103	–	–
HepG2 [1], 100 nM	–	–	98.6	–	–
HepG2 [1], 1000 nM	–	–	91.7	–	–
HepG2 [1], 10000 nM	–	–	79.9	–	–
U2OS [2], 1 nM	–	–	104	–	–
U2OS [2], 10 nM	–	–	97.3	–	–
U2OS [2], 100 nM	–	–	106	–	–
U2OS [2], 1000 nM	–	–	96.5	–	–
U2OS [2], 10000 nM	–	–	84.6	–	–
Vero E6 [5], 1 nM	–	–	102	–	–
Vero E6 [5], 10 nM	–	–	102	–	–
Vero E6 [5], 100 nM	–	–	97.1	–	–
Vero E6 [5], 1000 nM	–	–	104	–	–
Vero E6 [5], 10000 nM	–	–	98.9	–	–
[15], 0.3 µM	–	–	–	0.15	–
[15], 3 µM	–	–	–	0.39	–
[15], 10 µM	–	–	–	0.69	–
[15], 30 µM	–	–	–	0.58	–
[16], 0.3 µM	98	–	–	–	–
[16], 3 µM	87	–	–	–	–
[16], 10 µM	43	–	–	–	–
[16], 30 µM	59	–	–	–	–
[18], 0.3 µM	–	101	–	–	–
[18], 3 µM	–	114	–	–	–
[18], 10 µM	–	122	–	–	–
[18], 30 µM	–	112	–	–	–

Conditions	drug sensitivity score	relative viability EC50 [µM]
Caco-2 [8]	–	> 10
Caco-2 [12]	0.1	–
Calu-3 [13]	2.5	–
HepG2 [6]	–	> 10
HepG2 [10]	1.2	–
U2OS [7]	–	> 10
U2OS [11]	0.6	–
Vero E6 [14]	0	–
Vero E6 [20]	–	> 10

drug-induced phospholipidosis [%], A549-ACE2 [19]
Conditions	0.3 µM	0.833333 µM	3.33333 µM	6.66667 µM	10 µM	30 µM
24 h	3.67	4.27	13.4	35.8	68	86.8
48 h	4.58	3.03	14.7	33.7	65	56.9
72 h	3.91	-0.14	11.2	35.7	69.8	–

C[C@@H]1C[C@H]2[C@@H]3CCC4=CC(=O)C=C[C@]4(C)[C@@]3(Cl)[C@@H](O)C[C@]2(C)[C@@]1(OC(=O)c1ccco1)C(=O)CCl [MOMETASONE FUROATE]
Conditions	SARS-CoV-2 infection rate [%]	cell count [%]	cell viability [%]	morphology score	phospholipidosis EC50 [µM]
A549-ACE2 [17], 24 h	–	–	–	–	3.35
Caco-2 [3], 1 nM	–	–	91.3	–	–
Caco-2 [3], 10 nM	–	–	109	–	–
Caco-2 [3], 100 nM	–	–	85.6	–	–
Caco-2 [3], 1000 nM	–	–	96	–	–
Caco-2 [3], 10000 nM	–	–	83.1	–	–
Calu-3 [4], 1 nM	–	–	98.7	–	–
Calu-3 [4], 10 nM	–	–	101	–	–
Calu-3 [4], 100 nM	–	–	90.3	–	–
Calu-3 [4], 1000 nM	–	–	97.1	–	–
Calu-3 [4], 10000 nM	–	–	90.9	–	–
HepG2 [1], 1 nM	–	–	114	–	–
HepG2 [1], 10 nM	–	–	116	–	–
HepG2 [1], 100 nM	–	–	122	–	–
HepG2 [1], 1000 nM	–	–	97.4	–	–
HepG2 [1], 10000 nM	–	–	105	–	–
U2OS [2], 1 nM	–	–	98.5	–	–
U2OS [2], 10 nM	–	–	101	–	–
U2OS [2], 100 nM	–	–	94	–	–
U2OS [2], 1000 nM	–	–	102	–	–
U2OS [2], 10000 nM	–	–	92.8	–	–
Vero E6 [5], 1 nM	–	–	109	–	–
Vero E6 [5], 10 nM	–	–	100	–	–
Vero E6 [5], 100 nM	–	–	103	–	–
Vero E6 [5], 1000 nM	–	–	102	–	–
Vero E6 [5], 10000 nM	–	–	100	–	–
[15], 0.3 µM	–	–	–	0.19	–
[15], 3 µM	–	–	–	0.42	–
[15], 10 µM	–	–	–	0.6	–
[15], 30 µM	–	–	–	0.34	–
[16], 0.3 µM	99	–	–	–	–
[16], 3 µM	69	–	–	–	–
[16], 10 µM	28	–	–	–	–
[16], 30 µM	71	–	–	–	–
[18], 0.3 µM	–	97	–	–	–
[18], 3 µM	–	103	–	–	–
[18], 10 µM	–	108	–	–	–
[18], 30 µM	–	94	–	–	–

Conditions	drug sensitivity score	relative viability EC50 [µM]
Caco-2 [8]	–	> 10
Caco-2 [12]	0.5	–
Calu-3 [9]	–	> 10
Calu-3 [13]	0	–
HepG2 [6]	–	> 10
HepG2 [10]	0	–
U2OS [7]	–	> 10
U2OS [11]	0	–
Vero E6 [14]	0	–
Vero E6 [20]	–	> 10

drug-induced phospholipidosis [%], A549-ACE2 [19]
Conditions	0.3 µM	0.833333 µM	3.33333 µM	6.66667 µM	10 µM	30 µM
24 h	10.4	17.5	33.2	53.3	54.9	51.9
48 h	5.23	13.8	27.7	41.1	38.5	41.2
72 h	-4	-3.08	16.9	30.4	39.5	29.6
